According to patent US4443246A, “Herbicidal pyridyl-ethoxy-phenyl urea derivatives” (Takeda Chemical Industries, Ltd., priority 1981, dated 1984):

Columns and labels:
[1] = Toxicity to mammals (LD50, orally in mice); conditions: mouse, in vivo, po
Toxicity to fishes (TLm) = conditions: in vivo
Corn = assay: Phytotoxicity to crop (corn), foliar pot test; assay type: in vivo, Zea mays L.; conditions: 14 days after foliar spray
Method: 900 cm^2 -Plastic pots are packed with crop-filed soil and sown with seeds of Red root pigweed (Amaranthus retroflexus L.), Purple lambsquarter (Chenopodium album (L.) var. centrorubrum Makino), Oriental smartweed, (Polygonum Blumei Meisn.), Common purslane (Portulaca oleracea L.), Tall morningglory (Ipomoea purpurea (L.) Roth), Cocklebur (Xanthium strumarium L.), Velvetleaf (Abutilon theophrasti Medic.), Jimson weed (Datura stramonium L.) and Corn (Zea mays L.)
These test plants are grown in a greenhouse for 9-14 days. When the true leaves sprouted, these pots are placed in a chamber of 1000 cm^2, where 10 ml each of solutions each containing a given weight of the test compound is applied to each plant from the above with a small spraygun so that each drug solution is applied to leaves and stalks of the respective plants homogeneously. These pots are then left standing in the greenhouse for 14 days. Then, the above-ground portions of each of the thus treated plants, which have remained non-withering, are collected by cutting, followed by weighing while they are fresh.
The non-withering ratio is calculated on the basis of the corresponding weight of the control (non-treated) plants as 100%. The phytotoxicity and herbicidal effect of the test compound are evaluated on the basis of the following criteria. The test solution is prepared by dissolving the test compound of a given weight in 1 ml of acetone containing 1% of a surface-active agent, Tween 20® (Kao Atlas Co., Japan), which is diluted with deionized water to make the total volume to be 10 ml.
To dissolve or disperse the test compound completely in the acetone, stirring by means of super-sonic wave is employed.
Phytotoxicity to crop (corn) is indicated with the following indexes:
(The indexes 0 and 1 to crop denote the test compound can be practically applicable to crop.)

weeds = conditions: prior art, in words; cited from earlier work

Structure (SMILES) | LD50 [1] | LC50 (Toxicity to fishes (TLm)) | Phytotoxicity Corn (Corn; Application rate 10) | Phytotoxicity Corn (Corn; Application rate 20) | herbicidal activity (weeds)
Cc1cccc(CCOc2ccc(NC(=O)N(C)C)cc2)n1 [Compound No. 1, N,N-dimethyl-N'-[4-[2-(6-methyl-2-pyridyl)ethoxy]phenyl]urea] | ≥ 300 mg/kg | ≥ 10 µg/mL | 0 (None 0) | 0 (None 0) | 
CN(C)C(=O)Nc1ccc(Oc2ccc(Cl)cc2)cc1 [chloroxuron, N'-[4-(4-chlorophenoxy)phenyl]-N,N-dimethylurea] |  |  |  |  | have herbicidal activity
CON(C)C(=O)Nc1ccc(OCCc2cccc(C)n2)cc1 [Compound No. 3, N-methoxy-N-methyl-N'-[4-[2-(6-methyl-2-pyridyl)ethoxy]phenyl]urea] |  |  | 1 (Negligible 0.1 to 12.5) | 1 (Negligible 0.1 to 12.5) | 
CCc1ccc(CCOc2ccc(NC(=O)N(C)C)cc2)nc1 [Compound No. 2, N,N-dimethyl-N'-[4-[2-(5-ethyl-2-pyridyl)ethoxy]phenyl]urea] |  |  | 1 (Negligible 0.1 to 12.5) | 1 (Negligible 0.1 to 12.5) | 
